According to patent publication US20180028516A1, “METHODS AND DEVICES FOR THE TREATMENT OF OCULAR DISEASES IN HUMAN SUBJECTS” (CLEARSIDE BIOMEDICAL, INC., priority 2012, published 2018):

Legend:
[1] = Ocular toxicokinetics of TA after suprachoroidal or intravitreal injection (Example 8); format: in vivo, pigmented rabbits; settings: SCS, 2 mg TA, compared with intravitreal
Procedure: in this study, the total amount of triamcinolone acetonide (TA) delivered into live pigmented rabbit eyes when injected, into the suprachoroidal space using a hollow microneedle or into the vitreous using a standard 30 gauge needle was compared.
On Day 0, pigmented rabbits were injected with either intravitreal or bilateral suprachoroidal injections of 2 mg/100 μl TA Triesence® (TA; Alcon Labs). intravitreal injections were performed using a 30 g needle (Becton-Dickinson) and suprachoroidal injections were performed using a 33 g 750 μm microneedle. The residual amount of TA present in the syringe/needle assembly after injection was determined by RP-HPLC. Clinical observations, slit lamp biomicroscopy with McDonald-Shadduck scoring, intraocular pressure assessment (IOP), electroretinography (ERG), and systemic exposure were assessed up to 120 days post-dose. Animals were sacrificed at 30 minutes, 7 days, 30 days, 60 days, and 120 days for macroscopic observations, ocular toxicokinetics, and ocular histopathology.

[2] = Intraocular pressure and tolerability in porcine uveitis study (Example 13); format: in vivo, domestic weanling pigs
Procedure: Intraocular pressure (IOP) was measured at −6, −4, −1, 0, 1, 2, and 3 days using a TonoVet Tonometer (Care, Finland). In addition, IOP was measured 1, 3, and 6 hours after SCS or IVT injections on Day 0. The measurements were collected without use of topical anesthetic, per manufacturer recommendation. Conditioning of the pigs during acclimation permitted routine ocular examinations and IOP measurements to he done with minimal manual restraint. The tip of the tonometer probe was directed to contact the central cornea and 6 measurements were made consecutively. After the six measurements, the mean IOP was shown on the display providing the IOP that was recorded.

## CC1(C)O[C@@H]2C[C@H]3[C@@H]4CCC5=CC(=O)C=C[C@]5(C)[C@@]4(F)[C@@H](O)C[C@]3(C)[C@]2(C(=O)CO)O1 [TA, triamcinolone acetonide]
[1]
  ratio of TA Lens:Chroroid and Lens:Retina: much lower
[2]; TA into the SCS, porcine eyes
  adverse effects, increased IOP, procedural or acute drug toxicity: no adverse effects, increased IOP, or evidence of procedural or acute drug toxicity
[2]; up to three days after injection in porcine eyes
  tolerability of TA delivered to the SCS using microneedles: tolerated with an acceptable safety profile
